In patent publication US20080160106A1, “Novel Uses for Proton Pump Inhibitors” (Istituto Superiore de Sanita, priority 2004, published 2008):
Entries after “also recorded” stand apart in the source; their conditions may differ.

Columns and labels:
human melanoma cells [1] = experiment: In vivo effects of omeprazole and cisplatin on tumour growth in the human/SCID mouse model; design: species or system CB.17 scid/scid mice; details: cisplatin alone, single dose 5 mg/kg i.p.
Procedure: Animals: CB.17 SCID/SCID female mice (Harlan, Italy) were used at 4-5 weeks of age and were kept under specific pathogen-free conditions. SCID mice were housed in microisolator cages, and all food, water and bedding were autoclaved prior to use.
Transplantation and growth of human tumours in SCID mice: Each mouse was injected subcutaneously (s.c.) into the right flank with 3×10^6 cells resuspended in 0.2 ml RPMI 1640 supplemented with 10% FCS. After transplantation, the size of each tumour was measured using callipers. The tumour weight was estimated according to Geran et al. (1972) using the formula:
Tumour weight (mg)=length (mm)×width^2 (min)/2.
Mice treatment: Omeprazole (Astra-Zeneca, Italy) and pantoprazole (Sigma Tau) were administered at a dose of 75 mg/kg by gavage as previously described (Watson and Smith, 2001), as a suspension in PBS1X. Lansoprazole (Pharmacia, Sweden) and rabeprazole (Janssen) were administered at a dose of 25 mg/kg by gavage as previously described (Watson and Smith, 2001), as a suspension in PBS1X.
Cisplatin (Aventis, France) was administered intraperitoneally (i.p.) at a dose of 5 mg/kg (Son and Huang 1994).
Other: unless otherwise specified, other parameters are as set out in Examples 1 and 2, above.

human melanoma cells [2] = experiment: Cytotoxic effect of omeprazole in vitro, dose response curve (Trypan blue exclusion; Live/Dead assay); format: cell-based; details: 0.01-10 μg/ml
Procedure: Tumour cells: Human tumour cells (24 melanoma cell lines, 2 colon adenocarcinoma cell lines and 2 breast cancer cell lines) obtained from a primary tumour were cultured in buffered (with bicarbonate) or not buffered (without bicarbonate) RPMI 1640 medium enriched with 10% foetal bovine serum and antibiotics in a humidified 5% C02 and 95% air atmosphere.
Dose response curves: Tumour cells, growing in suspension, were plated at 1.5×10^5/ml, in 24 wells cell culture plate (Costar). Tumour cells growing in adherence were plated at 3×10^4 cells/well in 24 wells cell culture plate. Each dilution was tested at least in triplicate in each experiment.
Cytotoxicity assay: Cytotoxicity was evaluated using the Trypan blue exclusion method after treatment with each chemotherapeutic drug. Briefly, after treatment, cells growing in suspension were collected, centrifuged and resuspended in PBS1X. Alternatively, cells growing in adherence were collected, pooling both adherent (live) after trypsinisation and in suspension (assumed dead) cells. […] After 5 minutes, cells were loaded on a haemocytometer (Neubauer) and both live (not stained) and dead (blue stained) cells were counted under a light microscope. Cell viability was assessed calculating the percentage of dead cells using the formula: […]
Live/Dead Viability/Cytotoxicity Assay®. This assay (Molecular Probes, OR, USA) provides a two colour fluorescence cell viability assay that is based on the simultaneous determination of live and dead cells with two probes (Calcein AM and Ethidium homodimer 1) that measure two recognised parameters of cell viability—intracellular esterase activity and plasma membrane integrity. Live cells were distinguished by the presence of ubiquitous intracellular esterase activity, determined by the enzymatic conversion of the virtually non-fluorescent cell permeant Calcein AM to the intensely fluorescent calcein (ex/em 495 nm/515 nm), which is retained in the cell. […] The samples were analysed with a FACScan cytometer (Becton Dickinson) equipped with a 488 argon laser. […]

[3] = test system: human melanoma cells resistant to cisplatin; experiment: Effects of omeprazole on cisplatin resistance in vitro (cisplatin dose response curve); format: cell-based; details: without cisplatin
Procedure: Cytotoxicity assay: Cytotoxicity was evaluated using the Trypan blue exclusion method after treatment with each chemotherapeutic drug. Briefly, after treatment, cells growing in suspension were collected, centrifuged and resuspended in PBS1X. Alternatively, cells growing in adherence were collected, pooling both adherent (live) after trypsinisation and in suspension (assumed dead) cells. Cells were thus centrifuged (10 minutes at 1500 rpm) and resuspended in PBS1X. An aliquot of the cell suspension was diluted 1:1 (v/v) with 0.4% trypan blue. After 5 minutes, cells were loaded on a haemocytometer (Neubauer) and both live (not stained) and dead (blue stained) cells were counted under a light microscope. Cell viability was assessed calculating the percentage of dead cells using the formula:
% dead cells=(no. dead cells/no. dead cells+no. live cells)×100.
Drugs: The PPIs were as in Example 1, above. Cisplatin (Aventis, France) was resuspended in PBS1X at a stock concentration of 1 mg/ml, and stored at −20° C. Both stock solutions were thawed immediately before use and not frozen again. 5-Fluorouracil (Teva Pharma, Holland) was supplied in the form of a solution at a concentration of 50 mg/ml, and was stored at r.t. as indicated by the supplier. […]

Structure (SMILES)	tumour growth (human melanoma cells [1])	cytotoxic effect (% dead cells) (human melanoma cells [2]; buffered neutral medium pH 7.2)	cytotoxic effect (% dead cells) (human melanoma cells [2]; not buffered, slightly acidic medium)	cytotoxic effect of omeprazole alone [3]
N.N.[Cl][Pt][Cl] [cisplatin]	did not show a significant effect on tumour growth; also recorded: almost ineffective if administered alone	–	–	–
COc1ccc2[nH]c([S+]([O-])Cc3ncc(C)c(OC)c3C)nc2c1 (stereo not shown) [omeprazole]	–	no apparent cytotoxic effect	cytotoxic in a dose-dependent manner only for tumour cells grown in slightly acidic medium; also recorded: markedly exerted a cytotoxic effect on tumour cells, in a dose-dependent manner	did not exhibit any cytotoxic effect
